# In patent US8633314B2, “Forms of a multicyclic compound” (Cephalon, Inc., priority 2009, dated 2014):
# Key:
# Assay type in all cases: physicochemical
# [1] = Mechanical stress: grinding by mortar and pestle, milling by Wig-L-Bug
# Description: Approximately 100 mg of Compound I was ground at different times ranging from 5 to 27 min in an agate mortar. Samples were removed for XRPD and thermal analysis. The grinding process was stopped every 5 minutes to scrape and remix powder cakes at the curvature end of the jars to ensure homogenous grinding.
# A Wig-l-Bug® (Piketech, USA) was used to grind Compound I Form A0, HA0 and HB0 (mixture of Forms HC0 and HD0). Each sample (50 mg) was ground for periods of 5 and 10 minutes or until no change was observed. Each milling was carried out in a 2.82 cm^3 container using 0.9 g stainless steel ball ([…]). The vial is swung through a 6.5° arc at 3200 rpm, causing the ball to strike the end of the vial at over 100 Hz.
# [2] = Relative stability of slurries in water (XRPD of residual solid); conditions: for Forms Found (XRPD of residual solid): water
# Description: Two ml of water was added to a few milligrams of Compound I forms. The samples were slurried overnight. A small sample of solid was removed and analyzed by XRPD. […] The hydrate form appears to be more thermodynamically stable than Form A0 between 5 and 45° C.
# [3] = Solid state stress stability (storage; XRPD and stability-indicating HPLC)
# Description: Typically 10 μL aliquots of the sample solutions were diluted to 1 mL with acetonitrile and the assay concentrations were determined from an average of duplicate injections using the following HPLC method. The purity and impurity analyses are done using conventional HPLC.
# Crystallization studies were performed to investigate polymorphism in 48 different solvents. Solvents were selected on the basis of acceptability (ICH Class 3 and 2) and to give a range of dielectric constants, dipole moments and functional groups. Two starting materials were selected: Form A0 and Lot 7 (a mixture of Form A0, Form HC0 and Form HD0). When possible, full characterization was performed on the new forms that were generated during the polymorphism screening of Compound I. This characterization consisted of: XRPD, thermal analysis, DVS, storage at 40° C./75% RH and purity.
# Stress stability studies were performed to get a timely impression of the influence of temperature and humidity on form stability. A stability-indicating HPLC assay method was developed for quantitation of Compound I and its major degradation product, 7-methoxy-1,2,3,11-tetrahydro-5,11-diaza-benzo[a]trindene-4,6-dione, previously referred to as “Compound E”.
# [4] = Well plate crystallization with added water (forms found); conditions: for Forms Found: methyl acetate
# Description: B. Plates containing 10 volumes of Compound I (40 mg of Lot 7 in 400 μL) were heated from 20° C. to an initial temperature of 80° C. at a rate of 4.8° C./min and after 30 minutes, cooled at a slow (0.28° C./min), or fast (10° C./min) rate to a final temperature of 5° C. and kept at that temperature for 18 hours. The crystallization experiments were carried out in glass vial (4 mL) well plates, and solid material was isolated by filtration. The solid was dried at 57° C. for 10 hours.
# [5] = Dynamic vapor sorption (DVS)
# Description: Gravimetric vapor sorption experiments were carried out using the DVS-HT instrument (Surface Measurement Systems, London, UK). This instrument measures the uptake and loss of vapor gravimetrically using a recording ultra-microbalance with a mass resolution of ±0.1 μg. The vapor partial pressure (±1.0%) around the sample was controlled by mixing saturated and dry carrier gas streams using electronic mass flow controllers. The desired temperature was maintained at ±0.1° C.
# The samples (10-25 mg) were placed into the DVS-HT instrument at the desired temperature. Two types of dynamic vapor sorption experiments were performed: • 1. The sample was initially dried in stream of dry air (<0.1% relative humidity (RH)) for 20 hours to establish a dry mass and exposed to two 0-90% RH cycles (in 10% RH increments). • 2. The sample was exposed at 90% RH for 20 hours and exposed to two 90-0% RH cycles (in 10% RH increments). Infrared Spectrometry (FTIR)
# [6] = Variable temperature X-ray powder diffraction (VT-XRPD)
# Description: Variable temperature studies were performed under a nitrogen atmosphere with an Anton Paar TTK450 temperature chamber under computer control through an Anton Paar TCU100 temperature control unit. Two measurement schemes were used, restricted and continuous. In the restricted mode, measurements were made, only after the TK450 chamber reached the requested temperature. In the continuous mode, the sample was heated at 10° C./minute and fast scans were measured as the temperature changed. After the requested temperature was reached, the sample was cooled at 30 or 35° C./minute and a slower scan measured 25° C.
# [7] = Thermodynamic solubility of monohydrate forms in organic solvents
# Description: Experiments were set up to measure the thermodynamic solubility of these monohydrate forms at room temperature and 55° C. in ethyl acetate, MTBE and 1-pentanol.
# [8] = Irregular DVS (90 to 0% RH), listed as A0
# [9] = Regular DVS (0 to 90% RH), listed as A0
# [10] = Irregular DVS (90 to 0% RH), listed as HD0
# [11] = Regular DVS (0 to 90% RH), listed as HD0
structure (smiles),measurement,setting,value
"COc1cccc2[nH]c3c4c(c5c(c3c12)C(=O)N(CN1CCN(C)CC1)C5=O)CCC4 [Form A0, 4,5,6,7-tetrahydro-11-methoxy-2-[(4-methyl-1-piperazinyl)methyl]-1H-cyclopenta[a]pyrrolo[3,4-c]carbazole-1,3(2H)-dione]",XRPD crystallinity after milling,"[1]; five minutes, Wig-l-Bug",crystallinity had been significantly reduced
same,XRPD crystallinity after grinding,"[1]; twenty minutes, mortar and pestle",crystallinity had been significantly reduced
same,form after slurrying in water,"[2]; slurried overnight in 2 ml water, all conditions investigated",converted to the hydrate forms (mixture of Forms HC0 and HD0)
same,Forms Found (XRPD of residual solid),"[2]; 5° C., 1 day","HC0, HD0"
same,Forms Found (XRPD of residual solid),"[2]; 5° C., 4 days","HC0, HD0"
same,Forms Found (XRPD of residual solid),"[2]; 45° C., 1 day","HA0, HC0"
same,Chemical Stability (HPLC (post 4 weeks at 40° C./75% RH (Area %))),[3]; 40° C./75% RH,99.0 Area %
same,forms arising on storage (water uptake),"[3]; 40° C. and 75% RH, after 3 months",hydrate Forms HC0 and HD0
same,HPLC % Compound I,"[3]; 40° C./75% RH, 5 days","99.2% Compound I,"
same,HPLC % Compound I,"[3]; 40° C./75% RH, 16 days","99.2% Compound I,"
same,HPLC % Compound I,"[3]; 40° C./75% RH, 29 days","99.2% Compound I,"
same,HPLC % Compound I,"[3]; 40° C./75% RH, 141 days","99.0% Compound I,"
same,XRPD (form found),"[3]; 40° C./75% RH, 141 days","A0, HC0, HD0"
same,HPLC % Compound I,"[3]; 60° C./0% RH, 7 days","99.3% Compound I,"
same,HPLC % Compound I,"[3]; 60° C./0% RH, 14 days","99.1% Compound I,"
same,HPLC % Compound I,"[3]; 60° C./0% RH, 28 days","99.1% Compound I,"
same,HPLC % Compound I,"[3]; 110° C., 7 days","98.7% Compound I,"
same,HPLC % Compound I,"[3]; 110° C., 14 days","95.6% Compound I,"
same,HPLC % Compound I,"[3]; 110° C., 28 days","93.4% Compound I,"
same,form produced on crystallization from aqueous media,[4]; aqueous media,a mixture of Forms HC0+HD0 is produced
same,Forms Found,[4]; 0.175 volumes of water,"HC0, HD0"
same,Forms Found,[4]; 0.25 volumes of water,"HC0, HD0"
same,Forms Found,[4]; 1 volume of water,"HC0, HD0"
same,Forms Found,[4]; 1.5 volumes of water,"HC0, HD0"
same,DVS % increase in mass at 90% RH,[5]; 90% RH,0.1%
same,Total uptake at 90% RH,[5]; Irregular DVS (90 to 0% RH),0.5%
same,changes by XRPD re-analysis after DVS,[5]; Irregular DVS (90 to 0% RH),No significant changes
same,total increase in mass (reversible isotherm),[5]; Irregular DVS (90 to 0% RH),< 0.6%
same,At 75% RH uptake,[5]; [8],0.15%
same,Total uptake at 90% RH,[5]; [8],0.5%
same,At 75% RH uptake,[5]; Regular DVS (0 to 90% RH),less than 0.08%
same,Total uptake at 90% RH,[5]; Regular DVS (0 to 90% RH),approximately 0.1%
same,changes by XRPD re-analysis after DVS,[5]; Regular DVS (0 to 90% RH),No significant changes
same,hygroscopicity,"[5]; Regular DVS (0 to 90% RH), adsorption and desorption curves overlap",not hygroscopic
same,At 75% RH uptake,[5]; [9],0.08%
same,Total uptake at 90% RH,[5]; [9],0.1%
same,solid-solid transformation (VT-XRPD),[6]; 20° C. to 250° C.,No solid-solid transformation takes place
same,change in XRPD pattern after heating,"[6]; heated to 220° C., then exposure to ambient conditions",no significant change
"COc1cccc2[nH]c3c4c(c5c(c3c12)C(=O)N(CN1CCN(C)CC1)C5=O)CCC4 [Form HD0, 4,5,6,7-tetrahydro-11-methoxy-2-[(4-methyl-1-piperazinyl)methyl]-1H-cyclopenta[a]pyrrolo[3,4-c]carbazole-1,3(2H)-dione]",Chemical Stability (HPLC (post 4 weeks at 40° C./75% RH (Area %))),[3]; 40° C./75% RH,92.3 Area %
same,HPLC % Compound I,"[3]; 40° C./75% RH, 0 days","93.5% Compound I,"
same,XRPD (form found),"[3]; 40° C./75% RH, 0 days",HD0
same,HPLC % Compound I,"[3]; 40° C./75% RH, 7 days","92.2% Compound I,"
same,XRPD (form found),"[3]; 40° C./75% RH, 7 days",HD0
same,HPLC % Compound I,"[3]; 40° C./75% RH, 13 days","92.3% Compound I,"
same,XRPD (form found),"[3]; 40° C./75% RH, 13 days",HD0
same,HPLC % Compound I,"[3]; 40° C./75% RH, 28 days","92.3% Compound I,"
same,XRPD (form found),"[3]; 40° C./75% RH, 28 days",HD0
same,Total uptake at 90% RH,[5]; Irregular DVS (90 to 0% RH),0.8%
same,changes by XRPD re-analysis after DVS,[5]; Irregular DVS (90 to 0% RH),No significant changes
same,At 75% RH uptake,[5]; [10],0.4%
same,Total uptake at 90% RH,[5]; [10],0.8%
same,Total uptake at 90% RH,[5]; Regular DVS (0 to 90% RH),0.6%
same,changes by XRPD re-analysis after DVS,[5]; Regular DVS (0 to 90% RH),No significant changes
same,At 75% RH uptake,[5]; [11],0.4%
same,Total uptake at 90% RH,[5]; [11],0.6%
same,relative thermodynamic stability in solution,[7]; between room temperature and 55° C.,more thermodynamically stable than Form HC0 and form HA0
same,solubility relative to the other hydrated polymorph (Form HC0),"[7]; ethyl acetate, MTBE, 1-pentanol, RT and 55° C.",always higher
